Data as given in article PMC11952234, “Functional profiling of synthetic camel milk-derived peptides with implication in glucose transport and diabetes” (PLOS One, 2025).
Several values for one entry are separate records, joined by “and”; a condition that tells them apart may be missing. Equal values may be shown once. Read-outs that look alike come from different tables or passages of the source. Marks after values point to notes of the source that are not given here. Residues, ends and D or L forms follow the SMILES beside them.

How the values were obtained:
[1] = target: T1, insulin receptor (IR); interaction of IR-Rluc with IRS1-YFP in HEK293 cells (Homo sapiens, UniProt P06213); assay: BRET assay of IR activation (IR-Rluc/IRS1-YFP), single treatment, dose-response; assay type: cell-based; conditions: for Emax / BRET, % of the maximal response of insulin, Average: HEK293, 1 hour, minimal data set for Figure 1, average
T1 construct: expressed in transfected cells; host or cells: HEK293 cells, transient co-transfection; plasmids provided by Dr. Tarik Issad (Cochin Institute, Paris)
T1 sequence (P06213 28-758 limits assumed): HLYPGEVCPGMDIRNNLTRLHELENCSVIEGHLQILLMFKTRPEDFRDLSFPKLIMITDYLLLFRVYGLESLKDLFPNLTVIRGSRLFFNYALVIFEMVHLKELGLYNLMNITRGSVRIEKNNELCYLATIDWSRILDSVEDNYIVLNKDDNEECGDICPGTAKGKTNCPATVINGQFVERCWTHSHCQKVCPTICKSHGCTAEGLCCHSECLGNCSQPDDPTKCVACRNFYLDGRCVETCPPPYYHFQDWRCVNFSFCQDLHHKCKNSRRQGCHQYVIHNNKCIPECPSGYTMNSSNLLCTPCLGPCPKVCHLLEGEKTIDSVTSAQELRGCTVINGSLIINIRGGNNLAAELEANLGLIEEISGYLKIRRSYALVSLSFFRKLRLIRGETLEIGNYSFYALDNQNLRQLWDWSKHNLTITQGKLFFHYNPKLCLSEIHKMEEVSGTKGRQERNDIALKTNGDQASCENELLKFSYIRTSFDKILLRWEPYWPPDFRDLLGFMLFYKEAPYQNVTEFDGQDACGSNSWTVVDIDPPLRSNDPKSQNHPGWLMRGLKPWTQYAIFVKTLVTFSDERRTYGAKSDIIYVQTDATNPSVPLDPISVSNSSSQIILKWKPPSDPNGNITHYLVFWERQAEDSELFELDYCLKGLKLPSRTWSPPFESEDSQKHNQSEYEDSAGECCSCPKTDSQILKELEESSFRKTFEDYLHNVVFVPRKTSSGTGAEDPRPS
T1 sequence (P06213 763-1382 limits assumed): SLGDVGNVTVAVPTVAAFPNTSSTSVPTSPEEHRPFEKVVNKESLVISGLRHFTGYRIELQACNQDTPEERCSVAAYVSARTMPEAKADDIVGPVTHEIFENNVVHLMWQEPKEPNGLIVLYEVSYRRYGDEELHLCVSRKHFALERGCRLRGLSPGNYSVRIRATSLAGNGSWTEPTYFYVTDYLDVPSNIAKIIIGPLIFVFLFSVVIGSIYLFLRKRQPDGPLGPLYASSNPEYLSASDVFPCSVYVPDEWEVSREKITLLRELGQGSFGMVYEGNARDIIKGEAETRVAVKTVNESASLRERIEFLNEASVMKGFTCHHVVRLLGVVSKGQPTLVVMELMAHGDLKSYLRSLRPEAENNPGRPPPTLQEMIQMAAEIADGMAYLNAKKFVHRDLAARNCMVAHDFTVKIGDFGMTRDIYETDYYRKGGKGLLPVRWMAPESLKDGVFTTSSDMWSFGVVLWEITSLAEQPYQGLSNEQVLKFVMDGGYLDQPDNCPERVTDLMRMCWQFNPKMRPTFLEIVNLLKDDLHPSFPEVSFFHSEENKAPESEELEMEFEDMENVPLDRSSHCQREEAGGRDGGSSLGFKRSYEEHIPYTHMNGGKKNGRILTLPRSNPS
Description: (§1) HepG2 and HEK293 cells were maintained at 37°C, 5% CO2 in complete RPMI and Dulbecco’s modified Eagle’s medium (DMEM), respectively, containing 0.3 mg/ml glutamine, 100 IU/ml penicillin, and 100 µg/ml streptomycin) supplemented with 10% fetal calf serum (Gibco, Carlsbad, CA, USA). The transient transfection in HEK293 cells was carried out in 75 cm flask containing 10^7 cells using Lipofectamine 2000 and 5 µg of IR-Rluc and 5 µg of IRS1-YFP (for BRET and phosphorylation experiments) as previously described. All assays were performed 48 hours post-transfection.
(§2) BRET technology was used for IR activation and its interaction with IRS1 as previously described. […] Following treatments, 10 μl of Coelenterazine h was added to a final concentration of 5 µ M and BRET measurements were carried out using the Tristar 2 multi-label plate reader (Berthold, Germany), allowing luminescence recording and signal integration at 480 nm and 540 nm.
(§3) Statistical analyses were performed statistical significance between the different treatments and conditions as indicated in the figures and tables and their captions. […] The significance is indicated in the figures by stars (****p-value < 0.0001, ***p-value < 0.001, ** p-value < 0.01, * p-value < 0.05), and the absence of stars means non-significant (p-value > 0.05). However, the two-way ANOVA was used for multiple comparisons to determine the statistical significance between the different peptides when compared to each other in the different assays as described in the tables.

[2] = tested on: insulin receptor (IR); insulin-induced IR-Rluc/IRS1-YFP BRET in HEK293 cells; assay: BRET assay of IR activation, peptides combined with insulin; assay type: cell-based, human; conditions: for insulin-induced BRET, % of insulin's response in the vehicle, Average: Average of Experiments 1-7; for insulin-induced BRET, % of insulin's response in the vehicle, Average / insulin-induced BRET, % of insulin's response in the vehicle / % of maximal BRET (insulin-induced): 1 μM insulin + 0.1 mg/ml peptide; for insulin-induced BRET, % of insulin's response in the vehicle, Average / insulin-induced BRET, % of insulin's response in the vehicle: HEK293, minimal data set for Figure 2; for % of maximal BRET (insulin-induced): 1 hour, 37°C, % of insulin's response in the vehicle taken as 100%, mean ± SD of five to seven independent experiments in triplicate; for profile on insulin-dependent BRET response in combined treatment (in words): compared to insulin alone (Vehicle)
Description: as §1, §2
as §3, with “For BRET, the data were normalized by taking as 100% of the maximal insulin-induced BRET signal in the vehicle and analyzed using GraphPad Prism software (San Diego, CA, USA). Statistical” for “Statistical”, “tables. In this case, the different letters indicate statistically significant effects (p-value < 0.05), while the same letters indicate no significant difference between the different treatments compared to each other.” for “tables.”

[3] = tested on: IR phosphorylation (pIR-Tyr1334) in HepG2 cells; assay: IR phosphorylation by western blot in HepG2 cells; assay type: cell-based, human; conditions: 10 minutes, 37°C
Description: (§4) Following treatment, cells were then lysed with RIPA lysis buffer and thereafter centrifuged at 12000 × g for 30 minutes. Thereafter, the extracted cell lysate proteins were quantified using the bicinchoninic acid (BCA) protein assay. To examine the phosphorylation status of IR and AKT, 30-40 μg of proteins were loaded on 10% SDS-PAGE gel followed by western blot using the following antibodies: the mouse monoclonal anti-phospho-IR (pIR-Tyr1334)(1:1000 dilution) and the mouse monoclonal anti-phospho-AKT (pAKT-S473)(1:2000 dilution) as previously described. The corresponding total proteins loaded were also analyzed in parallel using the specific antibodies against the native forms of the different proteins. Densitometry analysis of the different western blots was performed using Image Studio Version 5.2 software from LICOR (Lincoln, Nebraska, USA).

HepG2 cells = assay: Glucose uptake assay (Glucose Uptake-Glo) in HepG2 cells; assay type: cell-based, human; conditions: 1 hour, 37°C; for glucose uptake, specific luminescence signal, Average: Average of Experiments 1-5, HepG2, 0.1 mg/ml peptide or 1 μM insulin, minimal data set for Figure 5; for % of glucose uptake: HepG2 cells, 0.1 mg/ml peptide or 1 μM insulin, % of insulin's response taken as 100%, mean ± SD of five independent experiments in triplicate
Description: Glucose uptake in HepG2 cells was carried out using Glucose Uptake-Glo Assay (Promega). For this, cells seeded in a 96-well white plate (50,000 cells/well) were first washed with PBS and starved in phenol red-, glucose-, and serum-free medium (Dulbecco’s modified Eagle’s medium containing 0.01 mM HEPES, 0.3 mg/ml glutamine, 100 IU/ml penicillin, and 100 µg/ml streptomycin). […] The treatment was removed, and the cells were washed once with PBS and then incubated with 50 μL/well of freshly prepared 2-deoxyglucose (500 μM) for 10 minutes at room temperature. The uptake process was stopped and neutralized, followed by the addition of 50 μl/well of 2-deoxyglucose-6-phosphate (2DG6P) detection reagent and incubation for 15-60 minutes at room temperature. The glucose-6-phosphate dehydrogenase (G6PDH) oxidizes 2DG6P to 6-phosphodeoxygluconate (6PDG) and reduces NADP + to NADPH. The reductase uses NADPH to convert the proluciferin to luciferin, which is then used by Ultra-Glo™ recombinant luciferase to produce luminescence. This luminescence, proportional to the amount of 2-deoxyglucose transported inside the cells upon treatment, was then measured using a 0.3–1 second integration on GloMax® Discover luminometer according to Glucose Uptake-Glo™ protocol.

[4] = tested on: AKT phosphorylation (pAKT-S473) in HepG2 cells; assay: AKT phosphorylation by western blot in HepG2 cells; assay type: cell-based, human; conditions: 10 minutes, 37°C
Description: as §4

[5] = HEK293, read-out: BRET, % of the maximal response of insulin, Average, peptide 0.001 mg/ml, 37°C
[6] = HEK293, read-out: BRET, % of the maximal response of insulin, Average, peptide 0.005 mg/ml, 37°C
[7] = HEK293, read-out: BRET, % of the maximal response of insulin, Average, peptide 0.01 mg/ml, 37°C
[8] = HEK293, read-out: BRET, % of the maximal response of insulin, Average, peptide 0.05 mg/ml, 37°C
[9] = HEK293, read-out: BRET, % of the maximal response of insulin, Average, peptide 0.1 mg/ml, 37°C
[10] = HEK293, read-out: BRET, % of the maximal response of insulin, Average, peptide 0.5 mg/ml, 37°C
[11] = HEK293, read-out: BRET, % of the maximal response of insulin, Average, peptide 1 mg/ml, 37°C
[12] = HEK293 cells, 0.1 mg/ml peptide + 1 μM insulin
[13] = 1 μM insulin + 0.1 mg/ml peptide
[14] = 0.1 mg/ml peptide, 3 independent experiments

Compound | Emax [1, 5] [%] | Emax [1, 6] [%] | Emax [1, 7] [%] | Emax [1, 8] [%] | Emax [1, 9] [%] | Emax [1, 10] [%] | Emax [1, 11] [%] | insulin-induced BRET, % of insulin's response in the vehicle, Average [2] | insulin-induced BRET, % of insulin's response in the vehicle ([2]; Experiment 1) | insulin-induced BRET, % of insulin's response in the vehicle ([2]; Experiment 2) | insulin-induced BRET, % of insulin's response in the vehicle ([2]; Experiment 3) | insulin-induced BRET, % of insulin's response in the vehicle ([2]; Experiment 4) | insulin-induced BRET, % of insulin's response in the vehicle ([2]; Experiment 5) | insulin-induced BRET, % of insulin's response in the vehicle ([2]; Experiment 6) | insulin-induced BRET, % of insulin's response in the vehicle ([2]; Experiment 7) | % of maximal BRET (insulin-induced) ([2]; HEK293 cells) | profile on insulin-dependent BRET response in combined treatment (in words) [2, 12] | glucose uptake, specific luminescence signal, Average (HepG2 cells) | % of glucose uptake (HepG2 cells) | also measured
CSCC[C@H](NC(=O)[C@H](Cc1c[nH]cn1)NC(=O)[C@H](CS)NC(=O)[C@@H]1CCCN1C(=O)[C@H](CC(C)C)NC(=O)[C@@H]1CCCN1C(=O)[C@@H]1CCCN1C(=O)[C@H](CC(C)C)NC(=O)[C@H](CS)NC(=O)[C@H](CS)NC(=O)[C@H](C)NC(=O)[C@@H](NC(=O)[C@H](C)NC(=O)[C@@H]1CCCN1)C(C)C)C(=O)O [Peptide P2] (H-PAVACCLPPLPCHM-OH; N-terminus and C-terminus assumed) | 6.9 | 19.9 | 32.1 | 47.3 | 59.2 | 68.7 | 58.9 | 52.0 | 76.0 | 33.7 | 14.3 | 58.1 | 54.3 | 70.5 | 56.8 | 52 ± 8% and 52 ± 8^b % | antagonistic | 1417300 | 56 ± 9^b % | decrease of the insulin-dependent BRET response [2, 12]: ~ 50%; insulin-induced IR phosphorylation, combined treatment (in words) [3, 13]: no inhibitory action
CC(C)[C@H](N)C(=O)N1CCC[C@H]1C(=O)N[C@@H](Cc1ccccc1)C(=O)O [Peptide P7, VPF] (H-Val-Pro-Phe-OH; N-terminus and C-terminus assumed) | 7.4 | 26.1 | 31.2 | 44.3 | 40.4 | 50.8 | 41.1 | 146.7 | – | 149.4 | 179.1 | 160.6 | – | 120.3 | 124.3 | 147 ± 11^d % | potentiating | 2605600 | – | insulin-induced AKT phosphorylation, combined treatment (in words) [4, 13]: slightly potentiated
MPVQA [Peptide P4] | – | – | – | – | – | – | – | 113.5 | 76.2 | 79.6 | 121.9 | 113.1 | 93.8 | 168.9 | 141.2 | 114 ± 13^a % | non-efficient | 1978100 | 78 ± 18^b % | % of maximal BRET ([1]; HEK293 cells co-expressing IR-Rluc and IRS1-YFP, single treatment 60 min, 37°C, maximal BRET increase of dose-response, % of insulin's response taken as 100%, mean ± SD of four independent experiments in triplicate): 13 ± 1^c %; BRET increase in single treatment (in words) ([1]; HEK293 cells, peptides applied alone): did not promote any significant BRET increase; BRET, % of the maximal response of insulin, Average ([1]; peptide 0.001 mg/ml, 37°C): 10.7; BRET, % of the maximal response of insulin, Average ([1]; peptide 0.005 mg/ml, 37°C): 9.6; BRET, % of the maximal response of insulin, Average ([1]; peptide 0.01 mg/ml, 37°C): 15.8; BRET, % of the maximal response of insulin, Average ([1]; peptide 0.05 mg/ml, 37°C): 14.2; BRET, % of the maximal response of insulin, Average ([1]; peptide 0.1 mg/ml, 37°C): 10.1; BRET, % of the maximal response of insulin, Average ([1]; peptide 0.5 mg/ml, 37°C): 15.2; BRET, % of the maximal response of insulin, Average ([1]; peptide 1 mg/ml, 37°C): 10.9; IR phosphorylation, single treatment (in words) [3, 14]: led to IR and AKT phosphorylation; AKT phosphorylation, single treatment (in words) [4, 14]: led to IR and AKT phosphorylation
